In ChEMBL document CHEMBL1139373, “Metabolic soft spot identification and compound optimization in early discovery phases using MetaSite and LC-MS/MS validation” (J Med Chem, 2009):

Experiment: Metabolic stability in human liver microsomes assessed as intrinsic clearance per mg of protein
Details: liver microsomes

Row | Structure (SMILES) | microsomal CLint [µL/min/mg]
1 | CN(C)CCCC1(c2ccc(F)cc2)OCc2cc(C#N)ccc21 (stereo unspecified) [CITALOPRAM] | 36
2 | CC(/C=C/C(=O)NO)=C\[C@@H](C)C(=O)c1ccc(N(C)C)cc1 [TRICHOSTATIN] | 107
3 | COc1ccc(C(CN(C)C)C2(O)CCCCC2)cc1 (stereo unspecified) [VENLAFAXINE] | 59
4 | CC(=O)CC(c1ccc([N+](=O)[O-])cc1)c1c(O)c2ccccc2oc1=O (stereo unspecified) [ACENOCOUMAROL] | 37
5 | c1ccc(C2(c3ccccc3)CC2C2=NCCN2)cc1 (stereo unspecified) [CIFENLINE] | 28
6 | CC(C)COCC(CN(Cc1ccccc1)c1ccccc1)N1CCCC1 (stereo unspecified) [BEPRIDIL] | 94
7 | CN1[C@@H]2CC[C@H]1C[C@@H](OC(=O)c1c[nH]c3ccccc13)C2 [TROPISETRON] | 22
8 | CN(C)CCOc1ccc(/C(=C(/CCCl)c2ccccc2)c2ccccc2)cc1 [TOREMIFENE] | 31
9 | CN1CC(=O)N2[C@H](c3ccc4c(c3)OCO4)c3[nH]c4ccccc4c3C[C@@H]2C1=O | 49
10 | c1ccc2c(c1)Sc1ccccc1N2CC1CN2CCC1CC2 (stereo unspecified) [MEQUITAZINE] | 34

Same assay, conditions: microsomes

Row | Structure (SMILES) | microsomal CLint [µL/min/mg]
11 | CN(C)CCCN1c2ccccc2Sc2ccc(Cl)cc21 [CHLORPROMAZINE] | 117
12 | CNCCCC12CCC(c3ccccc31)c1ccccc12 [MAPROTILINE] | 31
13 | O=c1c(O)c(-c2ccc(O)cc2)oc2cc(O)cc(O)c12 [KAEMPFEROL] | 269
14 | COc1ccccc1OCCNCC(O)COc1cccc2[nH]c3ccccc3c12 (stereo unspecified) [CARVEDILOL] | 235
15 | CNC1(c2ccccc2Cl)CCCCC1=O (stereo unspecified) [KETAMINE] | 136
16 | Cc1ncc2n1-c1ccc(Cl)cc1C(c1ccccc1F)=NC2 [MIDAZOLAM] | 554
